Our source for the IC50 and melting point values is patent US10221179B2, “Substituted pyrazoloquinazolinones and pyrroloquinazolinones as allosteric modulators of group II metabotropic glutamate receptors” (DOMAIN THERAPEUTICS, priority 2014, dated 2019).

By IC50 is commonly meant the concentration that gives 50% inhibition. Usually melting point stands for the temperature, or range, at which the solid turns liquid.

In series [1] the target is T1, human mGluR2 (hmGluR2) (Homo sapiens, UniProt Q14416).
T1 construct: expressed in transfected cells; host or cells: HEK-293 cells, transient co-transfection by electroporation
T1 sequence (Q14416 19-872): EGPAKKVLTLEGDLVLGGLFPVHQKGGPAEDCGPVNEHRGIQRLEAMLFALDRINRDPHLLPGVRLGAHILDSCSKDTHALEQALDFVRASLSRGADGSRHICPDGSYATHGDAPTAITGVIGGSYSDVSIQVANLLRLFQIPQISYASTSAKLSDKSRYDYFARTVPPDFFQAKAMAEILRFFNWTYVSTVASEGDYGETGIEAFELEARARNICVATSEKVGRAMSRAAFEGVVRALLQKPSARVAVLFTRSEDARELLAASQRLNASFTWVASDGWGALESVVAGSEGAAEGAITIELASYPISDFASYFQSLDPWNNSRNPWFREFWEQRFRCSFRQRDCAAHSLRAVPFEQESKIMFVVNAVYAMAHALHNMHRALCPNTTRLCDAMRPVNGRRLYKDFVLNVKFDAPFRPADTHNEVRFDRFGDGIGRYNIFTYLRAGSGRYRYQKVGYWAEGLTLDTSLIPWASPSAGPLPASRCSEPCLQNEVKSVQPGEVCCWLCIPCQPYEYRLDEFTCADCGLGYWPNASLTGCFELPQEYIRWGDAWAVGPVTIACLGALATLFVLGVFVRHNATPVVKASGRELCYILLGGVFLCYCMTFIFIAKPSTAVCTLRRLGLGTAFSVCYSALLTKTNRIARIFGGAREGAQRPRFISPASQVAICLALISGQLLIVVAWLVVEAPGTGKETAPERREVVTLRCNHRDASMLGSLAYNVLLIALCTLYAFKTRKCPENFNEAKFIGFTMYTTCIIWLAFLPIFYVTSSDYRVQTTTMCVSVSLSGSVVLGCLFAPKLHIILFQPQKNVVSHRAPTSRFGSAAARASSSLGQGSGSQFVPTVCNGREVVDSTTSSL
Nature of the series: Ca++ functional assay, human mGluR2 transiently over-expressed in HEK-293 cells (agonist and negative allosteric modulator modes). The format is cell-based. Conditions: glutamate at EC80, intracellular calcium (Fluo4AM), read-out: hmGluR2 negative allosteric modulator activity IC50. The procedure:
Example 127: Human mGluR2 and mGluR3 Evaluation Using Ca^++ Functional Assay
Examples of the present invention were tested successively for their agonist and negative allosteric modulator activities on human mGluR2 (hmGluR2) and mGluR3 (hmGluR3) transiently over-expressed in HEK-293 cells.
Cell Culture and Transfection
HEK-293 cells are maintained in Modified Eagle's Medium supplemented with 10% Foetal Calf Serum, 1% Penicillin/Streptomycin and 1% non-essential amino acids at 37° C./5% CO2.
Cells are co-transfected by electroporation with four DNA plasmids encoding hmGluR2 or hmGluR3, a chimeric G protein allowing redirection of the activation signal to intracellular calcium pathway (Brabet I et al., Neuropharmacology 37(8), 1043-51, 1998), and two glutamate transporters minimizing receptor desensitization by endogenous glutamate. After transfection, cells are cultured for 24 h at 37° C./5% CO2.
Calcium Assay IC50 Determination
Receptor activity is detected by changes in intracellular calcium measured using the fluorescent Ca^2+ sensitive dye, Fluo4AM (Molecular Probes).
On the day of the assay, culture medium is aspirated and replaced during 3 hours by medium without serum supplemented with 1% Glutamax, 1% Penicillin/Streptomycin and 1% non-essential amino acids. Then, cells are washed with freshly prepared buffer B (HBSS 1×(PAA), Hepes 20 mM, MgSO4-7H2O 1 mM, Na2CO3 3.3 mM, CaCl2-2H2O 1.3 mM, 0.1% BSA, Probenecid 2.5 mM) and loaded at 37° C. in 5% CO2 for 1.5 hours with buffer B containing 1 μM Fluo4AM, 0.1 mg/mL Pluronic Acid, 7 μg/mL Glutamate Pyruvate Transaminase and 2 mM sodium pyruvate. Afterwards cells are washed twice with buffer B. Then cells are detached using StemPro Accutase (Fischer Scientific), resuspended in buffer B and seeded in 384 well plate at a density of 30,000 cells per well. Addition of compounds and intracellular Ca^2+ measurements (excitation 485 nm, emission 525 nm) are performed by the fluorescence microplate reader FLIPRTetra (Molecular Devices).
Agonist and negative allosteric modulator activities of compounds are consecutively evaluated on the same cell plate. […] Then, cells are stimulated by an EC80 glutamate concentration and fluorescence is recorded for additional 3 minutes. EC80 glutamate concentration is the concentration giving 80% of the maximal glutamate response. Agonist or negative allosteric modulator activity(ies) are evaluated in comparison to basal signals evoked by buffer B or EC80 glutamate alone, respectively.
For IC50 determination, a dose-response test is performed using 20 concentrations (ranging over 6 logs) of each compound. Dose-response curves are fitted using the sigmoidal dose-response (variable slope) analysis in GraphPad Prism program (Graph Pad Inc) and IC50 of negative allosteric modulator activity is calculated. Dose-response experiments are performed in duplicate, two times independently.

Turning to `Cc1cc(-c2cc3n(C)c(=O)c4ccccc4n3n2)ccn1` [Example 2, 4-methyl 2-(2-methyl-pyridin-4-yl)-4H-pyrazolo[1,5-a]quinazolin-5-one], the IC50 in series [1] is under 1000 nM.

The compound `CCc1cc(-c2cc3n(C)c(=O)c4ccccc4n3n2)ccn1.Cl` [Example 3, 2-(2-Ethyl-pyridin-4-yl)-4-methyl-4H-pyrazolo[1,5-a]quinazolin-5-one] had a melting point of over 250 °C. For the same compound, the IC50 in series [1] was under 1000 nM.

In turn, `CCCc1cc(-c2cc3n(C)c(=O)c4ccccc4n3n2)ccn1.Cl` [Example 4, 2-(2-propyl-pyridin-4-yl)-4-methyl-4H-pyrazolo[1,5-a]quinazolin-5-one] gave a melting point of over 250 °C. For the same compound, in series [1], the IC50 was under 1000 nM.

`Cl.Cn1c(=O)c2ccccc2n2nc(-c3ccnc(C4CC4)c3)cc12` [Example 5, 2-(2-Cyclopropyl-pyridin-4-yl)-4-methyl-4H-pyrazolo[1,5-a]quinazolin-5-one] yielded a melting point of 248 to 251 °C. In addition, the IC50 in series [1] is under 1000 nM.

Compound `Cl.Cn1c(=O)c2ccccc2n2nc(-c3ccnc(C4CCC4)c3)cc12` [Example 6, 2-(2-cyclobutyl-pyridin-4-yl)-4-methyl-4H-pyrazolo[1,5-a]quinazolin-5-one] came in with a melting point of 236 to 244 °C. In series [1], the IC50 was under 1000 nM.

In the case of `C=C(C)c1cc(-c2cc3n(C)c(=O)c4ccccc4n3n2)ccn1` [Example 10, 2-(2-Isopropenyl-pyridin-4-yl)-4-methyl-4H-pyrazolo[1,5-a]quinazolin-5-one], the IC50 in series [1] is under 1000 nM.

In turn, `CC(C)c1cc(-c2cc3n(C)c(=O)c4ccccc4n3n2)ccn1.Cl` [Example 11, 2-(2-Isopropyl-pyridin-4-yl)-4-methyl-4H-pyrazolo[1,5-a]quinazolin-5-one] returned a melting point of over 250 °C. Also, the half-inhibitory concentration (IC50) in series [1] was under 1000 nM.

Compound `Cn1c(=O)c2ccccc2n2nc(-c3ccnc(C#N)c3)cc12` [Example 12, 4-(4-Methyl-5-oxo-4,5-dihydro-pyrazolo[1,5-a]quinazolin-2-yl)-pyridine-2-carbonitrile] had a melting point of over 250 °C. In addition, the IC50 in series [1] is under 1000 nM.

The compound `COc1cc(-c2cc3n(C)c(=O)c4ccccc4n3n2)ccn1` [Example 14, 2-(2-Methoxy-pyridin-4-yl)-4-methyl-4H-pyrazolo[1,5-a]quinazolin-5-one] returned a melting point of over 250 °C. Moreover, in series [1], the half-maximal inhibitory concentration (IC50) is under 1000 nM.

As for `CCOc1cc(-c2cc3n(C)c(=O)c4ccccc4n3n2)ccn1` [Example 15, 2-(2-ethoxy-pyridin-4-yl)-4-methyl-4H-pyrazolo[1,5-a]quinazolin-5-one], the melting point was 180 to 182 °C. Further, in series [1], the IC50 was under 1000 nM.

The compound `CC(C)Oc1cc(-c2cc3n(C)c(=O)c4ccccc4n3n2)ccn1` [Example 16, 2-(2-Isopropoxy-pyridin-4-yl)-4-methyl-4H-pyrazolo[1,5-a]quinazolin-5-one] gave a melting point of 173 to 176 °C. Besides, the IC50 in series [1] was under 1000 nM.

Turning to `Cn1c(=O)c2ccccc2n2nc(-c3ccnc(OC4CCC4)c3)cc12` [Example 17, 2-(2-Cyclobutoxy-pyridin-4-yl)-4-methyl-4H-pyrazolo[1,5-a]quinazolin-5-one], the melting point was 218 to 222 °C. Further, the IC50 in series [1] was under 1000 nM.

For the compound `Cn1c(=O)c2cc(Cl)ccc2n2nc(-c3ccnc(C(F)(F)F)c3)cc12` [Example 35], the half-inhibitory concentration (IC50) in series [1] is under 1000 nM.

With `Cn1c(=O)c2cc(Br)ccc2n2nc(-c3ccnc(C(F)(F)F)c3)cc12` [Example 39], the IC50 in series [1] is under 1000 nM.

As to `Cn1c(=O)c2ccc(Cl)cc2n2nc(-c3ccnc(C(F)(F)F)c3)cc12` [Example 56, 8-Chloro-4-methyl-2-(2-trifluoromethyl-pyridin-4-yl)-4H-pyrazolo[1,5-a]quinazolin-5-one], in series [1], the IC50 was under 1000 nM.

As to `Cn1c(=O)c2ccc(Br)cc2n2nc(-c3ccnc(C(F)(F)F)c3)cc12` [Example 58, 8-Bromo-4-methyl-2-(2-trifluoromethyl-pyridin-4-yl)-4H-pyrazolo[1,5-a]quinazolin-5-one], in series [1], the IC50 was under 1000 nM.

With `CN(C)C(=O)c1ccc2c(=O)n(C)c3cc(-c4ccnc(C(F)(F)F)c4)nn3c2c1` [Example 79, 4-Methyl-5-oxo-2-(2-trifluoromethyl-pyridin-4-yl)-4,5-dihydro-pyrazolo[1,5-a]quinazoline-8-carboxylic Acid Dimethylamide], the half-maximal inhibitory concentration (IC50) in series [1] was under 1000 nM.

As for `CNc1cc2c(=O)n(C)c3cc(-c4ccnc(C(F)(F)F)c4)nn3c2cc1OC` [Example 94, 8-Methoxy-4-methyl-7-methylamino-2-(2-trifluoromethyl-pyridin-4-yl)-4H-pyrazolo[1,5-a]quinazolin-5-one], in series [1], the IC50 was under 1000 nM.

Turning to `Cn1c(=O)c2cc(Cl)ccc2n2nc(-c3ccnc(Cl)c3)cc12` [Example 95, 7-Chloro-2-(2-chloro-pyridin-4-yl)-4-methyl-4H-pyrazolo[1,5-a]quinazolin-5-one], the IC50 in series [1] was under 1000 nM.

Consider `Cn1c(=O)c2cc(Cl)ccc2n2nc(-c3ccnc(C4CC4)c3)cc12` [Example 96], for which the IC50 in series [1] was under 1000 nM.

For the compound `Cn1c(=O)c2cc(Cl)ccc2n2nc(-c3ccnc(OCC(F)(F)F)c3)cc12` [Example 98, 7-Chloro-4-methyl-2-[2-(2,2,2-trifluoro-ethoxy)-pyridin-4-yl]-4H-pyrazolo[1,5-a]quinazolin-5-one], in series [1], the half-inhibitory concentration (IC50) is under 1000 nM.

Turning to `COc1ccc2c(c1)c(=O)n(C)c1cc(-c3ccnc(Cl)c3)nn21` [Example 99, 2-(2-Chloro-pyridin-4-yl)-7-methoxy-4-methyl-4H-pyrazolo[1,5-a]quinazolin-5-one], the IC50 in series [1] was under 1000 nM.

Turning to `COc1ccc2c(c1)c(=O)n(C)c1cc(-c3ccnc(C4CC4)c3)nn21` [Example 100, 2-(2-Cyclopropyl-pyridin-4-yl)-7-methoxy-4-methyl-4H-pyrazolo[1,5-a]quinazolin-5-one], in series [1], the IC50 is under 1000 nM.

Take `Cc1cc(-c2cc3n(C)c(=O)c4ccccc4n3n2)cc(Cl)n1` [Example 105, 2-(2-Chloro-6-methyl-pyridin-4-yl)-4-methyl-4H-pyrazolo[1,5-a]quinazolin-5-one]: in series [1], the 50% inhibitory concentration (IC50) is under 1000 nM.

With `Cc1cc(-c2cc3n(C)c(=O)c4ccccc4n3n2)cc(C2CC2)n1` [Example 106, 2-(2-Cyclopropyl-6-methyl-pyridin-4-yl)-4-methyl-4H-pyrazolo[1,5-a]quinazolin-5-one], the IC50 in series [1] was under 1000 nM.

Consider `Cn1c(=O)c2ccccc2n2nc(-c3ccncc3Cl)cc12` [Example 108, 2-(3-Chloro-pyridin-4-yl)-4-methyl-4H-pyrazolo[1,5-a]quinazolin-5-one], for which the IC50 in series [1] is under 1000 nM.

`Cn1c(=O)c2ccc(F)cc2n2nc(-c3ccnc(C4CC4)c3)cc12` [Example 112, 2-(2-Cyclopropyl-pyridin-4-yl)-8-fluoro-4-methyl-4H-pyrazolo[1,5-a]quinazolin-5-one] displayed a melting point of 230 to 235 °C.

Regarding `Cn1c(=O)c2ccc(F)cc2n2nc(-c3ccnc(Cl)c3)cc12` [Example 117, 2-(2-Chloro-pyridin-4-yl)-8-fluoro-4-methyl-4H-pyrazolo[1,5-a]quinazolin-5-one], in series [1], the IC50 is under 1000 nM.

`Cn1c(=O)c2cc(F)c(N3CCC34CCC(CO)CC4)cc2n2nc(-c3ccnc(C(F)(F)F)c3)cc12` (centres unmarked) [Example 123, 7-Fluoro-8-(7-hydroxymethyl-1-aza-spiro[3.5]non-1-yl)-4-methyl-2-(2-trifluoromethyl-pyridin-4-yl)-4H-pyrazolo[1,5-a]quinazolin-5-one] gave a melting point of over 250 °C.

In turn, `Cn1c(=O)c2ccc(N3CCCC(O)C3)cc2n2nc(-c3ccnc(C(F)(F)F)c3)cc12` (centres unmarked) [Example 124, 8-(3-Hydroxy-piperidin-1-yl)-4-methyl-2-(2-trifluoromethyl-pyridin-4-yl)-4H-pyrazolo[1,5-a]quinazolin-5-one] displayed a melting point of over 250 °C.

Compound `Cn1c(=O)c2ccc(NCC(C)(C)O)cc2n2nc(-c3ccnc(C(F)(F)F)c3)cc12` [Example 126, 8-(2-Hydroxy-2-methyl-propylamino)-4-methyl-2-(2-trifluoromethyl-pyridin-4-yl)-4H-pyrazolo[1,5-a]quinazolin-5-one] returned a melting point of over 250 °C.
